{"source": "patent US7309491B2", "about": "“Heat shock protein-based vaccines and immunotherapies” (priority 2003, dated 2007)", "key": {"CD8+ T cells": {"test_system": "CD8+ T cells", "type": "in vivo, B6 mice", "details": "mouse, in vivo"}, "[1]": {"test_system": "T cells of HHD II mice bearing human HLA-A2", "details": "mouse, in vivo"}, "[2]": {"target": "recombinant human or murine heat shock protein 70 (hsp70)", "assay": "Scatchard analysis of labeled reference hybrid antigen binding to hsp70", "details": "39% PBS, 20 mM THAM pH 8, 37 mM NaCl, 5 mM MgCl2, 1 mM ADP"}, "[3]": {"target": "recombinant human or murine heat shock protein 70 (hsp70)", "assay": "hsp70 binding inhibition assay (Hill plots) relative to labeled reference hybrid antigen", "details": "read-out: Kd for hsp70 binding, antigenic domains alone"}, "[4]": {"test_system": "SIINFEKL-pulsed target cells", "parameters": "species or system mice", "details": "mouse, in vivo"}}}
{"sequence": "NLLRLTGWFFRKSSWDFITV (SEQ ID NO:911) (Hybrid antigen)", "values": [{"measurement": "Number of Spots per 300,000 cells, Medium", "setting": "CD8+ T cells", "value": "0.7 ± 0.8 Spots per 300,000 cells"}, {"measurement": "Number of Spots per 300,000 cells, Response to Class I epitope when Class I and Class II hybrid antigen admixture is administered", "setting": "CD8+ T cells", "value": "98 ± 5.8 Spots per 300,000 cells"}, {"measurement": "Number of Spots per 300,000 cells, Response to Class I epitope when Class I hybrid antigen administered", "setting": "CD8+ T cells", "value": "18 ± 0.7 Spots per 300,000 cells"}, {"measurement": "Number of Spots per 300,000 cells, Splenocytes", "setting": "CD8+ T cells", "value": "0.7 ± 0.4 Spots per 300,000 cells"}]}
{"sequence": "NLLRLTGWFFRKIMDQVPFSV", "values": [{"measurement": "Number of Spots per 400,000 cells: IMD", "setting": "[1]", "value": "27 ± 5.1 spots per 400,000 cells"}, {"measurement": "Number of Spots per 400,000 cells: Medium control", "setting": "[1]", "value": "0.0 ± 0.0 spots per 400,000 cells"}, {"measurement": "Number of Spots per 400,000 cells: Unpulsed control", "setting": "[1]", "value": "0.0 ± 0.0 spots per 400,000 cells"}, {"measurement": "Number of Spots per 400,000 cells: YMD control", "setting": "[1]", "value": "2.0 ± 2.0 spots per 400,000 cells"}]}
{"sequence": "ALFDIESKVGSGHWDFAWPW", "values": [{"measurement": "Kd", "setting": "[2]; fluoresceinated label", "value": 10.8, "unit": "µM"}, {"measurement": "Kd", "setting": "[2]; tritiated label", "value": 22.6, "unit": "µM"}]}
{"sequence": "RGYVYQGL", "values": [{"measurement": "Kd", "setting": "[3]", "value": 82, "unit": "µM"}]}
{"sequence": "NLLRLTGWFFRKFAPGNYPAL (SEQ ID NO:892) (Hybrid antigen)", "values": [{"measurement": "Number of Spots per 300,000 cells, FAPGNYPAL (SEQ ID NO:906)", "setting": "CD8+ T cells", "value": "4.3 ± 3.2 Spots per 300,000 cells"}, {"measurement": "Number of Spots per 300,000 cells, IAYFYPEL (SEQ ID NO:904)", "setting": "CD8+ T cells", "value": "0.3 ± 0.6 Spots per 300,000 cells"}, {"measurement": "Number of Spots per 300,000 cells, Medium", "setting": "CD8+ T cells", "value": "0 ± 0 Spots per 300,000 cells"}]}
{"sequence": "NLLRLTGWRKSIINFEKL", "values": [{"measurement": "Number of Spots per 400,000 cells: Con A positive control", "setting": "CD8+ T cells", "value": "842 ± 73 spots per 400,000 cells"}, {"measurement": "Number of Spots per 400,000 cells: Medium control", "setting": "CD8+ T cells", "value": "1.0 ± 1.0 spots per 400,000 cells"}, {"measurement": "Number of Spots per 400,000 cells: Unpulsed control", "setting": "CD8+ T cells", "value": "1.0 ± 1.0 spots per 400,000 cells"}, {"measurement": "Number of spots per 400,000 cells: SIINFEKL (SEQ ID NO:868)", "setting": "CD8+ T cells", "value": "24 ± 1 spots per 400,000 cells"}, {"measurement": "Number of spots per 400,000 cells: VSV control", "setting": "CD8+ T cells", "value": "5.0 ± 3.0 spots per 400,000 cells"}, {"measurement": "CTL % killing at 200:1 E/T", "setting": "[4]", "value": 24, "unit": "%"}]}
{"sequence": "NLLRLTGWFFRKRTFSFQLI (SEQ ID NO:912) (Hybrid antigen)", "values": [{"measurement": "Number of Spots per 300,000 cells, Medium", "setting": "CD8+ T cells", "value": "0.3 ± 0.4 Spots per 300,000 cells"}, {"measurement": "Number of Spots per 300,000 cells, Response to Class I epitope when Class I and Class II hybrid antigen admixture is administered", "setting": "CD8+ T cells", "value": "43 ± 7.6 Spots per 300,000 cells"}, {"measurement": "Number of Spots per 300,000 cells, Response to Class I epitope when Class I hybrid antigen administered", "setting": "CD8+ T cells", "value": "5.3 ± 1.5 Spots per 300,000 cells"}, {"measurement": "Number of Spots per 300,000 cells, Splenocytes", "setting": "CD8+ T cells", "value": "0 ± 0 Spots per 300,000 cells"}]}
